Each structure is given as a SMILES string.

The assay is described as follows: Transrepression of RORgammat in anti-CD3/CD28 stimulated human PBMC derived CD4-positive T cells assessed as suppression of T cell differentiation to Th17 cells by measuring reduction in IL-17A level after 7 days by flow cytometry analysis.

The term IC50 denotes the concentration that inhibits the measured activity by half. `CCS(=O)(=O)c1ccc(CC(=O)Nc2ccc(C(C)(C)C(=O)Nc3ccc(F)cc3F)c(F)c2)cc1`: the IC50 came out at 13 nM.
Next, `CCS(=O)(=O)c1ccc(CC(=O)Nc2ccc(C(C)(C)C(=O)Nc3ccc(F)cc3F)cc2)cc1`: 36 nM.

For the origin of these results see BindingDB's records for doi:10.1016/j.bmcl.2018.09.032 (Shionogi, 2018).
